US20250129109A1

Columns and labels:
[1] = system: human gingival fibroblast cells (HGF-1); test: Cell cytotoxic test, human gingival fibroblast cells; conditions: HGF-1 cells; IC50 as silver concentration
[2] = system: stem cells from human exfoliated deciduous teeth (SHED1); test: Cell cytotoxic test, stem cells from human exfoliated deciduous teeth; conditions: IC50 as silver concentration

C1N2CN3CN1CP(C2)C3.C1N2CN3CN1CP(C2)C3.[Ag+].[F-] [SCF, [Ag(1,3,5-triaza-7-phosphaadamantane)2]F]
IC50 against HGF-1 (cell cytotoxicity) [1]: 43.98±12.80 ppm | IC50 against SHED1 (cell cytotoxicity) [2]: 34.54±5.09 ppm
